Two substances from patent publication US20230233671A1, “RNA MOLECULES” (Pfizer Inc., priority 2021, published 2023) can be followed below.

The test system of data set [1] is VZV gE. Put plainly: ICS assay of gE peptide-stimulated splenocytes from LAV-experienced C57BL/6 mice. The class given is in vivo. To be noted: for IFN-γ+ CD4+ T cell: percentage within CD4+ T cells; for IFN-γ+ CD8+ T cell: percentage within CD8+ T cells; for gE-specific IFN-γ+ CD8+ T cell response induced or not: FIG. 26C; for gE-specific IFN-γ+ CD8+ T-cell response, increase after second/boost dose: FIG. 27B. From the text:
Splenocytes were harvested from Balb/c mice on Day 34, (34 days after immunization, 6 days after boost) to assess gE-specific T cell responses induced. An Intracellular Cytokine Staining (ICS) assay was used to detect the presence of cytokines within CD4^+ or CD8^+ T cells following antigen peptide stimulation. ICS assay can detect multiple cytokines, including IFN-γ, produced in both CD4^+ and CD8^+ T cells following antigen peptide stimulation. During the ex vivo stimulation of splenocytes, reagents to block protein secretion are added to retain the synthesized cytokine to allow their detection by intracellular staining. Following stimulation, cells are stained for surface and intracellular markers to identify T cell types (CD3^+ cells for CD4 and CD8 T cells), activation markers (CD154/CD40L) and cytokines. CD4^+ T cells expressing IFN-γ, IL-2, TNFα and CD40L, and CD8^+ T cells expressing IFN-γ were assessed to evaluate gE-specific T cells.
2×10^6 splenocytes were stimulated with a 2 μg/mL gE peptide pool mix, a mix of 10 ng/ml phorbol myristate acetate (PMA) and 1 μg/mL ionomycin (positive control), or DMSO (negative control). BD GOLGISTOP™ and BD GOLGIPLUG™ were added to block protein secretion. Following incubation for 6 hours at 37° C., cells were stained for viability (10 min at 25° C.) and extracellular markers with directly labelled antibodies (20 min at 25° C.). Cells were fixed and permeabilized with BD CYTOFIX/CYTOPERM™ solution. Intracellular staining for cytokines (IFN-γ, IL-2, TNFα) and activation markers (CD154/CD40L) was performed in BD CYTOFIX/CYTOPERM™ solution (30 min at 25° C.). Cells were washed, resuspended in 2% FBS/PBS buffer and acquired on an LSRFORTESSA™. Data were analyzed by FlowJo 10.7.1. Results shown are background (media-DMSO) subtracted.
(§1) VZV RNA-LNP vaccines were tested for their ability to induce IgG and T cell responses in C57BL/6 mice. 15 mice per group were immunized in accordance with the schedule and specification in Table 11. Briefly, 10 or 15 mice per group were primed subcutaneously (SQ) on Day 0 with a live-attenuated varicella (LAV) vaccine (VARIVAX®, Merck) using a full human dose per mouse (1350 pfu), immunized intramuscularly (IM) on Day 35 day and boosted on Day 63. The “infection” with a LAV vaccine mimics exposure to VZV that humans receive when infected with VZV as children and develop chickenpox.
(§2) Mice immunized with SHINGRIX® received 1, 2.5, or 5 μg, corresponding to 1/50, 1/20, and 1/10 of the human clinical dose, respectively; mice immunized with gE_WT CO2 received 0.5 or 1 μg VZV RNA-LNP; mice immunized with ms5 CO1 received 0.5 or 1 ug VZV RNA-LNP; mice immunized with ms6 CO2 received 0.5 or 1 ug VZV RNA-LNP; and mice immunized with lyophilized gE_WT CO2 received 0.5 or 1 ug VZV RNA-LNP. Saline was administered on Day 35 and 63 to a negative control group. Sera was collected from mice on Day 35, 63 and 76 for characterization of VZV gE-binding IgG levels (LUMINEX® analyses). Spleens were harvested on Day 48 (13 days post dose 1 for selected groups) and Day 76 for cellular analysis (T cell and B cell responses).
Vaccine-induced T cell response was measured following ex vivo stimulation of splenocytes with gE peptide pool (2 μg/mL of each peptide) by ELISpot and Intracellular Cytokine Staining (ICS) assay (described herein). For ELISpot, the cytokine IFN-γ secreted by activated T cells were captured by an anti-IFN-γ antibody coated onto the polyvinylidene fluoride (PVDF) membrane of the well bottom on a microplate. The captured IFN-γ was developed into a spot by another non-competing biotinylated anti-IFN-γ secondary antibody followed by an enzymatic color reaction using streptavidin-alkaline phosphatase (ALP) conjugate and the substrate solution, nitro-blue tetrazolium and 5-bromo-4-chloro-3′-indolyphosphate (BCIP/NBT-plus) that yielded a dark purple precipitate or spot. […]

Data set [2] concerns VZV gE. Put plainly: Serum VZV gE-binding IgG levels (LUMINEX) in LAV-experienced C57BL/6 mice. Particulars: for Day 35 (GMC), serum gE-binding IgG: C57BL/6 mice, LAV SQ Day 0, Day 35 prior to immunization; for Day 63 (GMC), serum gE-binding IgG / Day 76 (GMC), serum gE-binding IgG: LAV-experienced C57BL/6 mice; for Day 63 (GMC), serum gE-binding IgG: Day 63 (1 month post dose 1); for Day 76 (GMC), serum gE-binding IgG: Day 76 (13 days post dose 2/boost). The format is in vivo. Here is the method:
Serum IgG levels were determined for each mouse sample using the LUMINEX® platform. Briefly, diluted sera were incubated in the dark in the presence of blocked, recombinant gE protein-bound single-plex microspheres (MAGPLEX® Microspheres, region 79) for 20±4 hours at 2-8° C., 300 rpm. A secondary antibody solution (R-phycoerythrin Conjugated AffiniPure F(ab)′2 Fragment Goat Anti-Mouse IgG F(ab)′2 Fragment Specific) was prepared at 1:250 in LXA-16 buffer. Plates were washed three times in LXA-20 (EIA-7), and secondary antibody was applied to each well of the assay plate. Plates were covered with aluminum sealers and incubated for 2 hours±15 minutes at 25° C., 300 rpm. Plates were washed three times with LXA-20 (EIA-7) buffer, and 100 ul LXA-20 was applied to each well. Plates were covered with aluminum sealers and incubated at 25° C., 300 rpm for a minimum of 4 minutes, or up to 2 hours. Plates were analyzed on a BIO-PLEX® Reader. IgG titers for Day, 28, 34 and 42 are show in Table 10 and FIGS. 17-19.
as §1, §2
Serum IgG levels were determined for each mouse sample using the LUMINEX® platform (described herein). IgG titers for Day 35, 63 (1 month post dose 1) and 76 (13 days pose dose 2) are show in Table 12 and FIGS. 22-24. Each data point in the figures is a result from an individual animal; each horizontal lines represents the geometric mean IgG concentration (μg/ml) and whiskers represent the 95% confidence interval.

The mark [3] stands for this setting: Day 48 (13 days post dose 1), 1 μg IM Day 35.
Setting [4] is: Day 76 (13 days post dose 2/boost), 1 μg IM Days 35 and 63.
Where [5] appears, read: Day 76 (13 days post dose 2/boost).

Take “ms5 CO1: modRNA construct, ORF SEQ ID NO: 153, VZV gE with deletion of aa 582-623”: the figures for the “IFN-γ+ CD4+ T cell” value in the data set with VZV gE [1] (setting [3]) and in the data set with VZV gE [1] (setting [4]) were 0.47% and 0.48%, respectively. The “IFN-γ+ CD8+ T cell” value with VZV gE [1] (setting [3]) worked out at 0.05%; in the data set with VZV gE [1] (setting [4]), 0.28%. For the same substance, in the data set with VZV gE [1] (Day 48 (13 days post dose 1)), the “gE-specific IFN-γ+ CD8+ T cell response induced or not” value was “induced”. In addition, in the data set with VZV gE [1] (setting [5]), the “gE-specific IFN-γ+ CD8+ T-cell response, increase after second/boost dose” value is listed as “robust increase”. Moreover, the results for the “Day 35 (GMC), serum gE-binding IgG” value in the data set on VZV gE [2] (0.5 μg group) and with VZV gE [2] (1 μg group) were 0.11 µg/mL and 0.14 µg/mL, respectively. Further, the results for the “Day 63 (GMC), serum gE-binding IgG” value in the data set with VZV gE [2] (0.5 μg IM Day 35) and in the data set on VZV gE [2] (1 μg IM Day 35) were 41 µg/mL and 76 µg/mL, respectively. The “Day 76 (GMC), serum gE-binding IgG” value in the data set on VZV gE [2] (0.5 μg IM Days 35 and 63) amounted to 556 µg/mL; with VZV gE [2] (1 μg IM Days 35 and 63), 530 µg/mL.

Turning to “ms6 CO2: modRNA construct, ORF SEQ ID NO: 157, VZV gE with deletion of aa 539-623, secreted”, the “IFN-γ+ CD4+ T cell” value is given as 0.09% in the data set with VZV gE [1] (setting [3]) and 0.50% with VZV gE [1] (setting [4]). In addition, the results for the “IFN-γ+ CD8+ T cell” value in the data set with VZV gE [1] (setting [3]) and in the data set with VZV gE [1] (setting [4]) were 0.16% and 0.21%, respectively. For the same substance, the “gE-specific IFN-γ+ CD8+ T cell response induced or not” value with VZV gE [1] (Day 48 (13 days post dose 1)) is “induced”. In addition, the “gE-specific IFN-γ+ CD8+ T-cell response, increase after second/boost dose” value with VZV gE [1] (setting [5]) is “robust increase”. For the same substance, the “Day 35 (GMC), serum gE-binding IgG” value in the data set on VZV gE [2] (0.5 μg group) came to 0.28 µg/mL; in the data set with VZV gE [2] (1 μg group), 0.19 µg/mL. Besides, the “Day 63 (GMC), serum gE-binding IgG” value was 50 µg/mL in the data set with VZV gE [2] (0.5 μg IM Day 35) and 58 µg/mL in the data set with VZV gE [2] (1 μg IM Day 35). Further, the “Day 76 (GMC), serum gE-binding IgG” value in the data set with VZV gE [2] (0.5 μg IM Days 35 and 63) was determined as 464 µg/mL; in the data set with VZV gE [2] (1 μg IM Days 35 and 63), 723 µg/mL.
